Tests used:
Type in all cases: cell-based
Human Nav1.5 = biological target: T1, Human Nav1.5 (Homo sapiens, UniProt Q14524); test: Nav1.5 Assay (VIPR, HEK293 cells); details: HEK293 cells expressing Human Nav1.5; average of replicates; read-out: Nav1.5 IC50
T1 construct: expressed in transfected cells; host or cells: HEK293
Description: The Nav1.5 assay is performed in HEK293 cells expressing Human Nav1.5 in the same way as the Nav1.8 assay.
Where replicate experiments were conducted resulting in multiple sets of data for a test compound, the data presented represent the average value from all replicate experiments.

[1] = tested on: tetrodotoxin-sensitive voltage-gated sodium channels including NaV1.2, NaV1.3 and NaV1.7; test: TTX-S Assay (VIPR, SHSY-5Y cell line, veratridine opener); details: read-out: TTX-S IC50, veratridine 50 μM opener, average of replicates
Human Nav1.8 = biological target: T2, Human Nav1.8 (Homo sapiens, UniProt Q9Y5Y9); test: VIPR Assay for Nav1.8 Compounds (FRET membrane potential, deltamethrin opener); details: VIPR FRET membrane potential assay, deltamethrin opener; average of replicates; read-out: Nav1.8 IC50
T2 construct: expressed in transfected cells; host or cells: HEK293
T2 sequence (Q9Y5Y9 whole entry): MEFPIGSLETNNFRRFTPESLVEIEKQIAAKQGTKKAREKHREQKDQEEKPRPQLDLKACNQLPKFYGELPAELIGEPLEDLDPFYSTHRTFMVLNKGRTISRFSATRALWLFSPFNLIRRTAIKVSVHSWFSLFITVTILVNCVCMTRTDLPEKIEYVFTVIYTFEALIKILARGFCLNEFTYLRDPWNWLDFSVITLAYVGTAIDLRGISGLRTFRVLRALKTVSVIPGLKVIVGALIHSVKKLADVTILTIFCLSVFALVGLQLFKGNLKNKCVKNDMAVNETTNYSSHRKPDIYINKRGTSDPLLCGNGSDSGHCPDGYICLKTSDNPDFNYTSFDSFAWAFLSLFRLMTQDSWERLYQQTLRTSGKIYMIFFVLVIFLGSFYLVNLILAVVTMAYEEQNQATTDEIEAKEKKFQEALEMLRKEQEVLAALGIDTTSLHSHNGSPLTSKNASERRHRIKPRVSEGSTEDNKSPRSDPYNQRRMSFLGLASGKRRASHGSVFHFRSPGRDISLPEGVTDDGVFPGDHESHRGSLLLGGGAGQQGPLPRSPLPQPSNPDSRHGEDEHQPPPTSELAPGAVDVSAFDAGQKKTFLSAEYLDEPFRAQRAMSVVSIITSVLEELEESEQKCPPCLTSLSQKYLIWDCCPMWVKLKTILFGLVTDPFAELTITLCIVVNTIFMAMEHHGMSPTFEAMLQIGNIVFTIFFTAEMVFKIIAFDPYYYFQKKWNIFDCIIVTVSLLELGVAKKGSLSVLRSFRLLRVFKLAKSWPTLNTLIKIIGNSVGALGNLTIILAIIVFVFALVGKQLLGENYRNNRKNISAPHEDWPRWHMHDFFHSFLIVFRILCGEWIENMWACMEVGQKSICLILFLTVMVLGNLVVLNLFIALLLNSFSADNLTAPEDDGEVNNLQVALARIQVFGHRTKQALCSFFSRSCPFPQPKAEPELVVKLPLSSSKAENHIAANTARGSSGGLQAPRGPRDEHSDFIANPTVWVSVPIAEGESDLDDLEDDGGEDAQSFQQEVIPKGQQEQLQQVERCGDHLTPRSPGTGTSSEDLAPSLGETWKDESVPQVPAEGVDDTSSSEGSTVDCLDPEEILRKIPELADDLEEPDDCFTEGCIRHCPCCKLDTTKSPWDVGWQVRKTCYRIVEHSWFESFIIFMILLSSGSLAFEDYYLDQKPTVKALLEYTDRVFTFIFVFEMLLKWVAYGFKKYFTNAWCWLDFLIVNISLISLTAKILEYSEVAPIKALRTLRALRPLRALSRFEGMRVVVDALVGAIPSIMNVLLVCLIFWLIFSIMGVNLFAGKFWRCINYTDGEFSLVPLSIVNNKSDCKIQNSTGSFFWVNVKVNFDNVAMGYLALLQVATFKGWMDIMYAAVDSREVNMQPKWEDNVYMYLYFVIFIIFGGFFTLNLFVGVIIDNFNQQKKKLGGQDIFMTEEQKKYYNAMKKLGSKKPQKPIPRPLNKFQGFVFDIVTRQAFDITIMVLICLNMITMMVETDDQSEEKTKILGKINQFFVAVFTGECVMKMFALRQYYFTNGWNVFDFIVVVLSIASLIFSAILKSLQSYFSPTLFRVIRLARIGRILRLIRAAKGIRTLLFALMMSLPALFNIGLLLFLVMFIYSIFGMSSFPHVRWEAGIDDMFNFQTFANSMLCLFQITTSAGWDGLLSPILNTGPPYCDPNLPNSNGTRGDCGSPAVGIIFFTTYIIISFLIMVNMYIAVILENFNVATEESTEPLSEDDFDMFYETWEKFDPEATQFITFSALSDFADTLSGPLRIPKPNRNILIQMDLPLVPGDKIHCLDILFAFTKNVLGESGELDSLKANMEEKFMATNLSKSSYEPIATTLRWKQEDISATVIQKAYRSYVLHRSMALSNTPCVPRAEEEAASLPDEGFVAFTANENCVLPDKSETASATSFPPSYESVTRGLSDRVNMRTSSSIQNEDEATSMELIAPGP

T1 sequence (Q14524 whole entry): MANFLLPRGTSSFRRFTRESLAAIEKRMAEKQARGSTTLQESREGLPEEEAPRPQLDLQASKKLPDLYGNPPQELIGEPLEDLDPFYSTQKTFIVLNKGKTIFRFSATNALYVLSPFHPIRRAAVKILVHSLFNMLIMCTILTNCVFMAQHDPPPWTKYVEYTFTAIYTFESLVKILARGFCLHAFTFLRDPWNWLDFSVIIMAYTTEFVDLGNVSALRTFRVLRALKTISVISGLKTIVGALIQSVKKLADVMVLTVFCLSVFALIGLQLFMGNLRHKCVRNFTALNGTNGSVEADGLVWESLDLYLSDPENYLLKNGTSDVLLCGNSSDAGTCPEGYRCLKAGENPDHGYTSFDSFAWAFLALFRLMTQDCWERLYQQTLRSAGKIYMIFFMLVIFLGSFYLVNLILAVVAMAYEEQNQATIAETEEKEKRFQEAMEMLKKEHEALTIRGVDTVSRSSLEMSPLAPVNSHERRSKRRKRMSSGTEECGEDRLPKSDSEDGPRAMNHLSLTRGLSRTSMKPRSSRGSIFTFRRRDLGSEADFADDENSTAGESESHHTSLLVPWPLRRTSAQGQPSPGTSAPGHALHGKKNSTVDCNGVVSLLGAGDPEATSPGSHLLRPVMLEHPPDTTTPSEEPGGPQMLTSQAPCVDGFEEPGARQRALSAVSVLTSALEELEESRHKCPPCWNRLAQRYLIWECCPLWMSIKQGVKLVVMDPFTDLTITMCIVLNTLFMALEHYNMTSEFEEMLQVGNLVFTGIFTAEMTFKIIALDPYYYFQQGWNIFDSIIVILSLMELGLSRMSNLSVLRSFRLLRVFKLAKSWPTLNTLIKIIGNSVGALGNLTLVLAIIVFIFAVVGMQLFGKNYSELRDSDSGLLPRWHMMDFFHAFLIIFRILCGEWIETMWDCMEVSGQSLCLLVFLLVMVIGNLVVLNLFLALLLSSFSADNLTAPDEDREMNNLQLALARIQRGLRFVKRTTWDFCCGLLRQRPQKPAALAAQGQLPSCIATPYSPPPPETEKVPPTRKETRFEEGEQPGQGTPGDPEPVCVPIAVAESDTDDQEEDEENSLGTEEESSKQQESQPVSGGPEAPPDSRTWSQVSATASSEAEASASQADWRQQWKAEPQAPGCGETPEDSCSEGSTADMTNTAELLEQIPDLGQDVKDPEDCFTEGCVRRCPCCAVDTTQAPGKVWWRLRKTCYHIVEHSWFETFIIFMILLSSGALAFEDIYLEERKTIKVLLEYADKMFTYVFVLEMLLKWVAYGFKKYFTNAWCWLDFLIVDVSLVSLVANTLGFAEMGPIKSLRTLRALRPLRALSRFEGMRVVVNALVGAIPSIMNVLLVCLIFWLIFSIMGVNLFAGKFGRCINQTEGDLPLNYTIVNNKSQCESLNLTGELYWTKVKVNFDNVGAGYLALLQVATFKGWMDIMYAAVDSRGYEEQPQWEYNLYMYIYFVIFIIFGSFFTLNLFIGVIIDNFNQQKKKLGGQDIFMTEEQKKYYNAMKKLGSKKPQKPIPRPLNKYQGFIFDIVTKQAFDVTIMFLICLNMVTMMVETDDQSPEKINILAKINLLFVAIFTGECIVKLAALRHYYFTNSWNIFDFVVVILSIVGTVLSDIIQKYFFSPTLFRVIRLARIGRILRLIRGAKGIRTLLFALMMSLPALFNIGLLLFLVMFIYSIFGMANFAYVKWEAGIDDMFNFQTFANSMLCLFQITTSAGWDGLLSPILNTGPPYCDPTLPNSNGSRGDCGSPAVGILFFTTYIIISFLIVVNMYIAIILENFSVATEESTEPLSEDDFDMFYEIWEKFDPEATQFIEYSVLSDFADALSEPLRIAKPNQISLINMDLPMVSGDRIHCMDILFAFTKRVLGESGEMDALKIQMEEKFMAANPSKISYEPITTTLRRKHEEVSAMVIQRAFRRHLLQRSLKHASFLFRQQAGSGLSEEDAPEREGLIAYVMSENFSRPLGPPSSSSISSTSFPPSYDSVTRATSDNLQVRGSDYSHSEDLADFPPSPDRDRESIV

With `Cc1nocc1C(=O)Nc1ccc(-c2cc(Cl)cc(Cl)c2)c(N)n1` [Example 31, N-[6-Amino-5-(3,5-dichlorophenyl)pyridin-2-yl]-3-methylisoxazole-4-carboxamide] the IC50 (Human Nav1.5) was 30 µM, the IC50 [1] was 20 µM and the IC50 (Human Nav1.8) was 3.9 µM.

`Cc1nocc1C(=O)Nc1ccc(-c2cc(Cl)ccc2OC(F)(F)F)c(N)n1` [Example 32, N-{6-Amino-5-[5-chloro-2-(trifluoromethoxy)phenyl]pyridin-2-yl}-3-methylisoxazole-4-carboxamide] showed an IC50 (Human Nav1.5) of 7.8 µM, an IC50 [1] of 2.6 µM and an IC50 (Human Nav1.8) of 0.64 µM.

For `Cc1nocc1C(=O)Nc1ccc(-c2ccccc2F)c(N)n1` [Example 33, N-[6-Amino-5-(2-fluorophenyl)pyridin-2-yl]-3-methylisoxazole-4-carboxamide], the IC50 (Human Nav1.5) was > 32 µM, the IC50 [1] was 23 µM and the IC50 (Human Nav1.8) was 6.5 µM.

With `Cc1nocc1C(=O)Nc1ccc(-c2cc(F)ccc2F)c(N)n1` [Example 34, N-[6-Amino-5-(2,5-difluorophenyl)pyridin-2-yl]-3-methylisoxazole-4-carboxamide] the IC50 (Human Nav1.5) was 16 µM, the IC50 [1] was 19 µM and the IC50 (Human Nav1.8) was 3.1 µM.

`Cc1nocc1C(=O)Nc1ccc(-c2cccc3c2OCCO3)c(N)n1` [Example 35, N-[6-Amino-5-(2,3-dihydro-1,4-benzodioxin-5-yl)pyridin-2-yl]-3-methylisoxazole-4-carboxamide] was tested, and the IC50 (Human Nav1.5) was > 32 µM, the IC50 [1] was > 32 µM and the IC50 (Human Nav1.8) was 11 µM.

For `Cc1nocc1C(=O)Nc1ccc(-c2cc(OC(F)(F)F)ccc2F)c(N)n1` [Example 36, N-{6-Amino-5-[2-fluoro-5-(trifluoromethoxy)phenyl]pyridin-2-yl}-3-methylisoxazole-4-carboxamide], the IC50 (Human Nav1.5) was 6.4 µM, the IC50 [1] was 2.2 µM and the IC50 (Human Nav1.8) was 1.3 µM.

`Cc1nocc1C(=O)Nc1ccc(-c2cc(OC(F)(F)F)ccc2Cl)c(N)n1` [Example 37, N-{6-Amino-5-[2-chloro-5-(trifluoromethoxy)phenyl]pyridin-2-yl}-3-methylisoxazole-4-carboxamide] was tested, and the IC50 (Human Nav1.5) was 3.6 µM, the IC50 [1] was 1.2 µM and the IC50 (Human Nav1.8) was 0.44 µM.

With `Cc1nocc1C(=O)Nc1ccc(-c2ccccc2OC(F)F)c(N)n1` [Example 38, N-{6-Amino-5-[2-(difluoromethoxy)phenyl]pyridin-2-yl}-3-methylisoxazole-4-carboxamide] the IC50 (Human Nav1.5) was 25 µM, the IC50 [1] was 26 µM and the IC50 (Human Nav1.8) was 2.6 µM.

Work on `Cc1nocc1C(=O)Nc1ccc(-c2cc(F)ccc2C(F)(F)F)c(N)n1` [Example 39, N-{6-Amino-5-[5-fluoro-2-(trifluoromethyl)phenyl]pyridin-2-yl}-3-methylisoxazole-4-carboxamide] yielded an IC50 (Human Nav1.5) of 21 µM, an IC50 [1] of 13 µM and an IC50 (Human Nav1.8) of 0.93 µM.

With `Cc1nocc1C(=O)Nc1ccc(-c2ccc(F)cc2)c(N)n1` [Example 40, N-[6-Amino-5-(4-fluorophenyl)pyridin-2-yl]-3-methylisoxazole-4-carboxamide] the IC50 (Human Nav1.5) was 31 µM, the IC50 [1] was 30 µM and the IC50 (Human Nav1.8) was 20 µM.

Work on `Cc1nocc1C(=O)Nc1ccc(-c2cc(F)ccc2Cl)c(N)n1` [Example 41, N-[6-Amino-5-(2-chloro-5-fluorophenyl)pyridin-2-yl]-3-methylisoxazole-4-carboxamide] yielded an IC50 (Human Nav1.5) of 12 µM, an IC50 [1] of 11 µM and an IC50 (Human Nav1.8) of 0.25 µM.

With `Cc1nocc1C(=O)Nc1ccc(-c2ccccc2C(F)F)c(N)n1` [Example 42, N-[6-Amino-5-[2-(difluoromethyl)phenyl]pyridin-2-yl]-3-methylisoxazole-4-carboxamide] the IC50 (Human Nav1.5) was > 32 µM, the IC50 [1] was 22 µM and the IC50 (Human Nav1.8) was 2.5 µM.

`Cc1nocc1C(=O)Nc1ccc(-c2ccccc2OC(F)(F)F)c(N)n1` [Example 43, N-{6-Amino-5-[2-(trifluoromethoxy)phenyl]pyridin-2-yl}-3-methylisoxazole-4-carboxamide] showed an IC50 (Human Nav1.5) of 12 µM, an IC50 [1] of 10 µM and an IC50 (Human Nav1.8) of 0.32 µM.

`Cc1nonc1C(=O)Nc1ccc(-c2cc(F)ccc2Cl)c(N)n1` [Example 47, N-[6-Amino-5-(2-chloro-5-fluorophenyl)pyridin-2-yl]-4-methyl-1,2,5-oxadiazole-3-carboxamide] showed an IC50 (Human Nav1.5) of 7.4 µM, an IC50 [1] of 6.1 µM and an IC50 (Human Nav1.8) of 1.4 µM.

From US8134007B2, “Pyridine derivatives” (Pfizer Inc., priority 2007, dated 2012)
